According to publication PMC9507378 (Advanced Science, 2022):
Values after ≈ are worked out from the molar mass of the structure shown.

Columns and labels:
[1] = test system: OP9 cells; experiment: Apoptosis by flow cytometry (Annexin V-FITC/PI); format: cell-based; details: 5-FU group, 25 µg mL^−1, 24 h
Method: Cell cycle, senescence and apoptosis detection: Cell cycle and apoptosis were detected via flow cytometric analysis. OP9 cells were cultured in 6-well plates and
treatment (25 μg/mL). […] The cell apoptosis was detected using Annexin V-FITC/PI apoptosis detection kit (KeyGEN, Jiangsu, China).

[2] = test system: SCF production in OP9 cells; experiment: SCF expression (immunofluorescence, Western blot); format: cell-based; details: 25 µg mL^−1 5-FU, 24 h; n = 3
Method: staining buffer (2% FBS in PBS), then immunofluorescent staining was performed for later flow cytometry (PE anti-γ-H2AX, Biolegend, 1:20).
Western blotting: The total protein was extracted using Total Protein Extraction Kit (KeyGEN, Jiangsu, China) according to the standard protocol. After protein extraction and boiling denaturation, the proteins were separated using 10-15% SDS-PAGE and transferred to PVDF membranes. Then the samples were blocked with blocking buffer (QuickBlock™ Blocking Buffer, Beyotime Biotechnology, Shanghai, China) for 15min, and then incubated with related primary antibodies (anti-GAPDH, CST, 1:1000; anti-Bcl-2, CST, […]; anti-Bax, CST; anti-Caspase-3, […]
1:500; anti-γ-H2AX, abcam, 1:5000) overnight at 4 ℃. At the second day, the samples were incubated with related secondary antibodies for 1h and detected using Gel & Blot Imaging system (ChemiDoc MP, Bio-Rad, USA). […]
another 24-h 5-FU treatment. […] Finally, the samples were detected using fluorescence confocal microscope (FV3000, Olympus, Japan).
Plasma pharmacokinetics: Plasma pharmacokinetics experiment was performed to investigate the in vivo metabolism of tFNAs and OGP-tFNAs. tFNAs-Cy5 and OGP-tFNAs-Cy5 were administrated via tail vein injection. […] Finally, the blood samples were detected using the channel of Cy5 fluorescence of Gel & Blot Imaging system (ChemiDoc MP, Bio-Rad, USA). […]

[3] = test system: OP9 cells; experiment: CCK-8 cell viability assay; format: cell-based; details: 48 h, CCK-8, n = 6, tested 6.25 to 100 µg mL^−1, read-out: concentration showing the median inhibitory effect on OP9 cells
Method: macropinocytosis, actin microfilament, and microtubule. The OP9 cells were pretreated with five inhibitors separately in 2% FBS culture media for 1 h, then the culture media was replaced with new culture media simultaneously containing OGP-tFNAs-Cy5 and different inhibitors for another 6 h. After that, the samples were collected for flow cytometric analysis and confocal microscopy observation for fluorescence intensity detection.
Cell viability assay: Cell Counting Kit-8 (CCK-8) assay was applied to detect the cell viability after treatment with tFNAs, OGP and OGP-tFNAs with different […]
Cell cycle, senescence and apoptosis detection: Cell cycle and apoptosis were detected via flow cytometric analysis. […]
treatment (25 μg/mL). The cell cycle was detected using cell cycle detection Kit (KeyGEN, Jiangsu, China). […] After that, the samples were rinsed with PBS and incubated with RNase for 30 min in 37℃ water-bath, then incubated with Propidium Iodide (PI) for 30min and detected via flow cytometry. The cell apoptosis was detected using Annexin V-FITC/PI apoptosis detection kit (KeyGEN, Jiangsu, China).
After the cells were collected and resuspended with 500 μL binding buffer, 5 μL Annexin V-FITC and 5 μL PI were added into the binding buffer. After 5-15 min incubation, the samples were detected via flow cytometry. […]

[4] = test system: ICR mice; details: mouse, in vivo, ip, 150 mg/kg
Method: 6–8 weeks male ICR mice (Dossy Experimental Animals Co, Ltd., Chengdu, China) were raised in specific pathogen‐free (SPF) environment with stable temperature and 12 h light/dark cycle.
Myelosuppression induction and systematic drug delivery: The mice were divided
into five groups: 1) Control group; 2) Saline + myelosuppression group; 3) tFNAs +
myelosuppression group. For myelosuppression groups, the mice were continuously
intraperitoneal injection (i.p.) for 3 days (days 4-6) for myelosuppression induction.
For normal group, the same volume of saline was delivered via tail intravenous
injection at days 1-9 and PBS via intraperitoneal injection at days 4-6. At day 10, all
the mice were sacrificed for later detections.
Histological detections: As main hematopoietic organs, femurs and sternums were
collected and fixed in 4% paraformaldehyde. After decalcification for 3-4 weeks in
EDTA decalcifying solution (Servicebio, Wuhan, China), the samples were
dehydrated and embedded in paraffin. Then, the samples were coronally sectioned
along the long axis of the femurs and sternums, then Hematoxylin-Eosin (H&E)
staining was performed to observe the histological changes. Meanwhile, as major

[5] = test system: OP9 cells; experiment: Cellular internalization mechanism of OGP-tFNAs with endocytosis inhibitors; format: cell-based; details: 1 h inhibitor pretreatment in 2% FBS medium then 6 h with OGP-tFNAs-Cy5, 20 μM for Dynasore and Cytochalasin D, flow cytometry, n = 3
Method: Cell culture and treatment: Bone marrow stromal OP9 cells were purchased from
National Collection of Authenticated Cell Cultures (Shanghai, China). The cells were
cultured in α-MEM with 1% penicillin-streptomycin and 20% FBS at 37 ° C in 5%
CO2. When the cell intensity approached 80%-90%, OP9 cells were recultivated in
internalization of tFNAs, and the influence of tFNAs as drug carriers on the cellular
labeled with FITC fluorescence. After the cells were treated with tFNAs-Cy5 and
harvested for flow cytometric analysis (Attune® NxT, Invitrogen, USA) and confocal
fluorescence microscopy observation (FV3000, Olympus, Japan).
(Methyl-β-cyclodextrin, MedChemExpress, USA; Dynasore, MedChemExpress, USA;
Nocodazole, MedChemExpress, USA; Amiloride hydrochloride, Abcam, USA;
Cytochalasin D, Abcam, USA) were used to inhibit the clathrin, caveolae,

SMILES: O=c1[nH]cc(F)c(=O)[nH]1 [5-FU, 5‐fluorouracil]
- number of dead OP9 cells [1]: ≈ 30%
- reduction of SCF production in OP9 cells [2]: ≈ 50%
- IC50 [3]: 25 µg/mL (≈ 192 µM)

SMILES: O=P1(N(CCCl)CCCl)NCCCO1 (stereo not drawn) [cyclophosphamide]
- share of the bone marrow cavity filled by bone marrow cells [4]: 20–30%

SMILES: O=C(N/N=C/c1ccc(O)c(O)c1)c1cc2ccccc2cc1O [Dynasore]
- inhibition of internalization of OGP-tFNAs [5]: more significant inhibition ratios

SMILES: C=C1[C@@H](C)[C@H]2[C@H](Cc3ccccc3)NC(=O)[C@]23[C@H](OC(C)=O)/C=C/[C@@](C)(O)C(=O)[C@@H](C)C/C=C/[C@H]3[C@@H]1O [Cytochalasin D]
- inhibition of internalization of OGP-tFNAs [5]: more significant inhibition ratios
